From PMC7380097, “Measurement of Bradykinin Formation and Degradation in Blood Plasma: Relevance for Acquired Angioedema Associated With Angiotensin Converting Enzyme Inhibition and for Hereditary Angioedema Due to Factor XII or Plasminogen Gene Variants” (Frontiers in Medicine, 2020)
Where “and” joins values, the source holds several entries; their conditions need not be identical. Equal values may be shown once. Entries after “also recorded” stand apart in the source; their conditions may differ. Where a name gives a salt, the structure may show the parent alone. Residues, ends and D or L forms follow the SMILES beside them.

Columns and labels:
[1] = cited from earlier work
Excerpt: ACE blockade greatly increases BK persistence and pharmacological effect in human whole blood under a variety of in vitro stimulation conditions ([20]). Membrane-bound ACE produced by vascular endothelial cells is shed in an apparently regulated manner into blood plasma ([34]), allowing the use of blood/plasma/serum to monitor ACE activity in human subjects.

human B1 receptor = conditions: cited from earlier work
Excerpt: In the plasminogen sequence, the residue 330 is not proximal to a physiological cleavage site or to the catalytic site: it is rather located within a potential adhesion site in the kringle 3 domain of the molecule ([5]). However, the K330E variant is associated with a distinct N-glysosylation pattern and an increased susceptibility to activation by urokinase-type plasminogen activator (uPA), but not by tPA (assessed only using a chromogenic substrate) ([41]). […] If uP ...

in vitro = in vitro ADME; conditions: human; for half-life at 100 nM: plasma
Procedure: (§1) Venous blood was collected without contact with glass in plastic blood collection tubes with 0.11 M sodium citrate (BD Vacutainer Plus, BD Biosciences, Franklin Lake, NJ); the plasma was obtained by centrifugation (1,300 g, 20 min, room temperature), stored at −80°C until use and/or expedition on dry ice to Quebec City. The in vitro activation of plasma at 37°C (200 μl per experimental point sample) was performed precisely as described ([21]) in the presence of enalaprilat (final concentration 130 nM) to reduce the breakdown of BK. The samples were incubated for up to 120 min under rotary agitation (300 rpm) without any added stimulant or with recombinant human tissue kallikrein (KLK-1, 10 nM; gift from DiaMedica, Inc.), with the particulate contact system activator Pacific Hemostasis Kontact-APTT™ (2% v/v; used without the calcium supplement; composed mainly of magnesium aluminum silica and rabbit brain phospholipid; ThermoFisher Scientific) or with recombinant tissue plasminogen activator (tPA, 169 nM; Cathflo, Roche). The tPA concentration was reproduced from Molinaro et al. ([19]) and within the range reached in plasma during therapeutic fibrinolysis. Biotechnological inhibitors used in the mechanistic analysis of iBK formation were previously exploited ([20], [21]) and are listed in Table 2.
An additional set of experiments aimed at measuring the rate of BK breakdown in the presence or absence of the ACE inhibitor enalaprilat or in plasma from selected human subjects: synthetic BK (100 nM) was added to 200 μl of plasma from healthy volunteers or HAE-nC1-INH patients and incubated at 37°C under agitation for 0–20 min.
In all experiments dealing with BK EIA, the reactions were stopped by adding 1 ml of cold ethanol, as described ([21]). After further incubation on ice-water for an additional period of at least 60 min, the plasma/ethanol mixtures were cleared of precipitated proteins by centrifugation (13,000 g, 1 min), evaporated to dryness (Speed Vac apparatus) and stored at −80°C until used for BK determination. Then, the samples were reconstituted with 200 μl of distilled water, further diluted 100-fold (1,000-fold for selected samples) with the supplied EIA buffer and directly applied in duplicate to the BK EIA as recommended by the manufacturer (Phoenix Pharmaceuticals, Burlingame, CA; cat. no. EK-009-01; 96-well plate format). The BK EIA is fully cross-reactive with Lys-BK, but not at all with des-Arg^9-BK or Lys-des-Arg^9-BK.
Numerical values are reported as means ± standard errors of the mean (S.E.M.). Sets of values were compared with Kruskall-Wallis test (non-parametric ANOVA) followed by Dunn's multiple comparison test to compare selected pairs of values. Pairs of values were compared using Mann-Whitney test (Prism 5.0, GraphPad Software Inc., San Diego, CA). The half-life (t1/2) of iBK was calculated as the first order decay procedure in a software suite ([30]).

human B2 receptor = conditions: cited from earlier work
[2] = test system: angiotensin converting enzyme (ACE); assay: Effect of oral enalapril maleate on ex vivo BK half-life in plasma of healthy volunteers; parameters: species or system human; conditions: 2 daily oral doses of enalapril maleate 10 mg, healthy volunteers (two), plasma 24 h after the last dose vs before dosing
Procedure: Numerical values are reported as means ± standard errors of the mean (S.E.M.). […] The half-life (t1/2) of iBK was calculated as the first order decay procedure in a software suite ([30]).

[3] = Blood pressure of healthy volunteers taking enalapril maleate; format: in vivo, human; conditions: two normotensive healthy volunteers, 2 daily doses of enalapril maleate 10 mg (Figure S1)
Procedure: We previously reported that iBK formation was negligible in either whole blood or plasma incubated at 37°C without stimulus both in healthy donors and HAE patients sampled during remission (HAE-C1-INH type I or II) ([20], [21]). This may be paradoxical because HK is spontaneously and progressively cleaved in the blood of patients with HAE-C1-INH ([15], [16]) or HAE-nC1-INH ([17]). A possible explanation is the efficient clearance of kinins.

[4] = test system: iBK generation induced by tPA; assay: tPA-induced iBK generation in plasma from HAE-FXII (T328K) patients, effect of biotechnological inhibitors; format: biochemical, human; conditions: tPA 169 nM, 20 min incubation, enalaprilat 130 nM present, inhibitor added 5 min before stimulus, 37°C, EIA
Procedure: as §1, with “2. […]” for “2.”

[5] = test system: iBK generation induced by Kontact-APTT; assay: Kontact-APTT-induced iBK generation in plasma from HAE-FXII (T328K) patients, effect of biotechnological inhibitors; format: biochemical, human; conditions: Kontact-APTT 2% v/v, 5 min incubation, enalaprilat 130 nM present, inhibitor added 5 min before stimulus, 37°C, EIA
Procedure: as §1, with “2. […]” for “2.”

[6] = test system: KLK-1-induced iBK formation; assay: KLK-1-induced iBK formation in plasma from HAE-PLG patients, effect of lanadelumab; format: biochemical, human; conditions: KLK-1 10 nM, 5 min incubation, inhibitor added 5 min before KLK-1, enalaprilat 130 nM present, EIA
Procedure: as §1, with “2. […]” for “2.”

Question: Which “change of half-life of synthetic des-Arg9-BK when ACE is blocked” value [1] does the source give for des-Arg^9-BK here?
Answer: The value was “doubled”.

Question: What about the “affinity for the human form of the B1 receptor” value (human B1 receptor) of the same molecule?
Answer: Its value is “low affinity”.

Question: Which “t1/2 of BK in serum” value [1] does the source give for `NC(N)=NCCC[C@H](NC(=O)[C@H](Cc1ccccc1)NC(=O)[C@@H]1CCCN1C(=O)[C@H](CO)NC(=O)[C@H](Cc1ccccc1)NC(=O)CNC(=O)[C@@H]1CCCN1C(=O)[C@@H]1CCCN1C(=O)[C@@H](N)CCCN=C(N)N)C(=O)O` [BK, Bradykinin] (H-RPPGFSPFR-OH) here?
Answer: Its value is 27 s.

Question: What about the half-life at 100 nM (in vitro; female, BK t1/2 in plasma of family d (HAE-nC1-INH, unknown cause)) of the same molecule?
Answer: Its half-life at 100 nM is 22.5 s.

Question: What about the “half-life (t1/2) of BK in normal plasma” value (in vitro) of the same molecule?
Answer: The value was 33 s.

Question: And the half-life at 100 nM (in vitro; BK t1/2 in plasma 24 h after 2nd oral dose of enalapril maleate)?
Answer: Its half-life at 100 nM is 190 s.

Question: And the half-life at 100 nM (in vitro; BK t1/2 in plasma before dosing (baseline))?
Answer: The half-life at 100 nM was 39.5 s.

Question: And the half-life at 100 nM (in vitro; half-life (t1/2) of BK in normal plasma)?
Answer: The half-life at 100 nM was 34 s.

Question: What about the half-life at 100 nM (in vitro; half-life (t1/2) of BK in plasma with ACE blocked by enalaprilat) of the same molecule?
Answer: The half-life at 100 nM was 426 s.

Question: Which “agonist status at the human B1 receptor” value (human B1 receptor) does the source give for Lys-des-Arg^9-BK here?
Answer: The value was “optimal agonist”.

Question: With “Lys-BK: kinin formed by KLK-1 mainly from low molecular weight kininogen; direct B2 receptor agonist” as the molecule, how does the “potency relative to BK at the human B2 receptor” value (human B2 receptor) read?
Answer: Its value is “approximately equipotent”.

Question: Which results are given for `CCOC(=O)[C@H](CCc1ccccc1)N[C@@H](C)C(=O)N1CCC[C@H]1C(=O)O` [enalapril maleate]?
Answer: fold increase of BK t1/2 in plasma after oral dosing [2]: ~ 5 fold and 4.8 fold; blood pressure change during the experiment [3]: slight reversible drop

B1: lanadelumab: Human monoclonal antibody, target plasma kallikrein (antibody, chains of the INN, looked up, V domains shown)
VH: EVQLLESGGGLVQPGGSLRLSCAASGFTFSHYIMMWVRQAPGKGLEWVSGIYSSGGITVYADSVKGRFTISRDNSKNTLYLQMNSLRAEDTAVYYCAYRRIGVPRRDEFDIWGQGTMVTVSS
VL: DIQMTQSPSTLSASVGDRVTITCRASQSISSWLAWYQQKPGKAPKLLIYKASTLESGVPSRFSGSGSGTEFTLTISSLQPDDFATYYCQQYNTYWTFGQGTKVEIK
Question: With B1 as the molecule, how does the “effect on early iBK release induced by tPA” value [4] read?
Answer: Its value is “significantly decreased; also recorded: suppressed”.

Question: What about the “effect on early iBK response to Kontact-APTT” value [5] of the same molecule?
Answer: The value was “significantly decreased”.

Question: What about the “effect on KLK-1-induced iBK formation” value [6] of the same molecule?
Answer: Its value is “not decreased; also recorded: Lack of effect; also recorded: did not inhibit”.
